# Laboratory results as given in patent US11040028B2, “Penicinotam derivative, preparation method and use thereof” (OCEAN UNIVERSITY OF CHINA, priority 2017, dated 2021).
# Key:
# Assay type in all cases: cell-based
# BHK-21 cells = experiment: Anti-fibrosis activity test: inhibition of BHK-21 cell proliferation (CCK-8); details: Mesocricetus auratus, BHK-21, 48 h, 48 h, CCK-8
# Procedure, shortened: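 Cells plated 2×10^4 cells/mL; 24 h attach; compound dilutions, triplicate, 48 h, 37° C/5% CO2; CCK-8 2 h; A450; IR = (1−Ai/Ao)×100%; IC50 by curve fit.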
# [1] = tested on: human lung fibroblasts HFL1; experiment: Anti-fibrosis activity test: inhibition of proliferation of human lung fibroblasts HFL1 (CCK-8); details: Homo sapiens, HFL1, 48 h, HFL1 cells, 48 h, CCK-8
# Procedure, shortened: (§1)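 Seed 2×10^4 cells/mL; adhere 24 h, 37° C/5% CO2. Compounds, serial concentrations, triplicate, 48 h. CCK-8 2 h, A450. IR=(1−Ai/Ao)×100% vs blank; IC50 fitted. Pirfenidone as positive control.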
# [2] = tested on: human hepatic stellate cells LX-2; experiment: Anti-fibrosis activity test: inhibition of proliferation of human hepatic stellate cells LX-2 (CCK-8); details: Homo sapiens, LX-2, 48 h, LX-2 cells, 48 h, CCK-8
# Procedure, shortened: as §1
# [3] = tested on: human fibrosarcoma cells HT-1080; experiment: Anti-fibrosis activity test: inhibition of proliferation of human fibrosarcoma cells HT-1080 (CCK-8); details: Homo sapiens, HT-1080, 48 h, HT-1080 cells, 48 h, CCK-8
# Procedure, shortened: as §1
# [4] = tested on: human dermal fibroblasts CCC-ESF-1; experiment: Anti-fibrosis activity test: inhibition of proliferation of human dermal fibroblasts CCC-ESF-1 (CCK-8); details: Homo sapiens, Fibroblast; CCC-ESF-1 cells, 48 h, CCK-8
# Procedure, shortened: as §1
# [5] = tested on: human embryonic lung fibroblast IMR-90; experiment: Anti-fibrosis activity test: inhibition of proliferation of human embryonic lung fibroblast IMR-90 (CCK-8); details: Homo sapiens; IMR-90 cells, 48 h, CCK-8
# Procedure, shortened: as §1
# [6] = tested on: cardiac fibroblast RAT-iCell-C002; experiment: Anti-fibrosis activity test: inhibition of proliferation of cardiac fibroblast RAT-iCell-C002 (CCK-8); details: Cardiac fibroblast, 48 h, RAT-iCell-C002 cells, CCK-8
# Procedure, shortened: as §1
# NF-κB = experiment: Immunological activity test: inhibition of NF-κB activity; details: initial concentration of 30 μM; a/b isomers given as first/second symbol; read-out: IC50 (μM), inhibitory activity against NF-κB
# Procedure, shortened: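 Parthenolide as positive control; starting test concentration 30 μM; inhibition of NF-κB activity analysed further to yield IC50.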
# [7] = tested on: mouse macrophages (RAW264.7); experiment: Lipopolysaccharide-induced NO secretion in macrophages (Griess); details: Mus musculus, RAW264.7, 24 h, RAW264.7, LPS 1 μg/ml, a/b isomers given as first/second symbol, read-out: IC50 (μM), inhibition of lipopolysaccharide-induced NO secretion in macrophages
# Procedure, shortened: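 LPS 1 μg/ml, 24 h, RAW264.7 (DMEM/10% FBS); cpds at varied concs. Supernatant NO by Griess, A548; % inhibition vs blank medium.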
SMILES,IC50 (BHK-21 cells) [mM],IC50 [1] [mM],IC50 [2] [mM],IC50 [3] [mM],IC50 [4] [mM],IC50 [5] [mM],IC50 [6] [mM],IC50 (NF-κB) [µM],IC50 [7] [µM]
"Cc1ccc(C)c2c(O)c3c(nc12)-c1cccn1C3=O [Compound 772b, 9-hydroxy-5,8-dimethyl-10H-pyrrolizino[1,2-b]quinolin-10-one]",0.05 to 5,0.05 to 5,0.05 to 5,0.05 to 5,0.05 to 5,0.05 to 5,0.05 to 5,0.1 to 1,1 to 10
"Cc1cccc2[nH]c3c(c(=O)c12)-c1cccn1C3=O [Compound 776a, 10-Methyl-5H-pyrrolizino[2,1-b]quinoline-5,11(6H)-dione]",< 0.05,0.05 to 5,0.05 to 5,0.05 to 5,0.05 to 5,0.05 to 5,0.05 to 5,1 to 10,10 to 50
"Cc1cccc2nc3c(c(O)c12)-c1cccn1C3=O [Compound 776b, 11-hydroxy-10-methyl-5H-pyrrolizino[2,1-b]quinolin-5-one]",0.05 to 5,0.05 to 5,0.05 to 5,0.05 to 5,0.05 to 5,0.05 to 5,0.05 to 5,0.1 to 1,1 to 10
"O=C1c2c(c(=O)c3ccccc3n2CCCN2CCOCC2)-c2cccn21 [Compound 787a, 6-(3-Morpholinopropyl)-5H-pyrrolizino[2,1-b]quinoline-5,11(6H)-dione]",0.05 to 5,0.05 to 5,0.05 to 5,0.05 to 5,0.05 to 5,0.05 to 5,0.05 to 5,1 to 10,10 to 50
"O=C1c2nc3ccccc3c(OCCCN3CCOCC3)c2-c2cccn21 [Compound 787b, 11-(3-morpholinopropoxy)-5H-pyrrolizino[2,1-b]quinolin-5-one]",0.05 to 5,0.05 to 5,0.05 to 5,0.05 to 5,0.05 to 5,0.05 to 5,0.05 to 5,0.1 to 1,10 to 50
"Cc1ccn2c1-c1c([nH]c3ccccc3c1=O)C2=O [Compound 797a, 1-Methyl-5H-pyrrolizino[2,1-b]quinoline-5,11(6H)-dione]",0.05 to 5,0.05 to 5,0.05 to 5,0.05 to 5,0.05 to 5,0.05 to 5,0.05 to 5,1 to 10,1 to 10
"Cc1ccn2c1-c1c(nc3ccccc3c1O)C2=O [Compound 797b, 11-hydroxy-1-methyl-5H-pyrrolizino[2,1-b]quinolin-5-one]",0.05 to 5,0.05 to 5,0.05 to 5,0.05 to 5,0.05 to 5,0.05 to 5,0.05 to 5,0.1 to 1,1 to 10
"Cc1cc2n(c1)C(=O)c1[nH]c3ccccc3c(=O)c1-2 [Compound 798a, 2-Methyl-5H-pyrrolizino[2,1-b]quinoline-5,11(6H)-dione]",< 0.05,0.05 to 5,0.05 to 5,0.05 to 5,0.05 to 5,0.05 to 5,0.05 to 5,1 to 10,1 to 10
"Cc1cc2n(c1)C(=O)c1nc3ccccc3c(O)c1-2 [Compound 798b, 11-hydroxy-2-methyl-5H-pyrrolizino[2,1-b]quinolin-5-one]",0.05 to 5,0.05 to 5,0.05 to 5,0.05 to 5,0.05 to 5,0.05 to 5,0.05 to 5,1 to 10,1 to 10
"Cc1ccc2n1C(=O)c1[nH]c3ccccc3c(=O)c1-2 [Compound 799a, 3-Methyl-5H-pyrrolizino[2,1-b]quinoline-5,11(6H)-dione]",0.05 to 5,0.05 to 5,0.05 to 5,< 0.05,0.05 to 5,0.05 to 5,0.05 to 5,1 to 10,1 to 10
"Cc1ccc2n1C(=O)c1nc3ccccc3c(O)c1-2 [Compound 799b, 11-hydroxy-3-methyl-5H-pyrrolizino[2,1-b]quinolin-5-one]",0.05 to 5,0.05 to 5,0.05 to 5,0.05 to 5,0.05 to 5,0.05 to 5,0.05 to 5,1 to 10,1 to 10
